Measured values from PMC5762728 (Scientific Reports, 2018).
Values belong to the compound of their own block, whether it stands above or below them.

What was measured:
[1] = molecular target: T1, C-domain of bovine ACE (C-ACE) (Bos taurus, UniProt P12820); assay: Inhibition of C-ACE hydrolysis of Aβ peptides by lisinopril; type: biochemical; conditions: lisinopril 10 μM; MALDI-TOF MS
T1 sequence (P12820 643-1222 limits assumed): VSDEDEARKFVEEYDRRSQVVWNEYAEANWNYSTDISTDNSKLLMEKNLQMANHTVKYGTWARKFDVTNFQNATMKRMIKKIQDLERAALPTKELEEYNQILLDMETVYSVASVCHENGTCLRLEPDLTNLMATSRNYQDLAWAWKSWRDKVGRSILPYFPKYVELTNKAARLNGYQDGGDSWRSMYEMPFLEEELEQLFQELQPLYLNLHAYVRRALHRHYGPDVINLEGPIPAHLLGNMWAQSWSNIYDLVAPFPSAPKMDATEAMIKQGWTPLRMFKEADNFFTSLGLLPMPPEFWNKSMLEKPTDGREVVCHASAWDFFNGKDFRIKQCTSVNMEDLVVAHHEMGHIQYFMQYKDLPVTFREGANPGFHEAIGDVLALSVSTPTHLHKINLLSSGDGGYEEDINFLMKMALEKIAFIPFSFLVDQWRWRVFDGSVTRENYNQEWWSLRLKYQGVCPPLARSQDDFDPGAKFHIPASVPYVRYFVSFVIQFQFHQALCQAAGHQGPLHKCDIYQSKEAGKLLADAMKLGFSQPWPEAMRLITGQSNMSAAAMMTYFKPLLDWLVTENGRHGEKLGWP

C-domain of ACE (C-ACE) = assay: C-ACE with lisinopril, ratAβ substrate; conditions: bovine, 37 °C, up to 60 min
N-domain of ACE (N-ACE) [2] = assay: N-ACE with lisinopril, ratAβ substrate; conditions: bovine, 37 °C, up to 60 min
[3] = tested on: N-ACE (N-domain of bovine ACE); conditions: 37 °C, up to 60 min
[4] = molecular target: T2, N-domain of bovine ACE (N-ACE) (Bos taurus, UniProt P12820); assay: Hydrolysis of Aβ metal-binding-domain peptides by N-ACE, products identified/quantified by MALDI-TOF MS
T2 sequence (P12820 40-624 limits assumed): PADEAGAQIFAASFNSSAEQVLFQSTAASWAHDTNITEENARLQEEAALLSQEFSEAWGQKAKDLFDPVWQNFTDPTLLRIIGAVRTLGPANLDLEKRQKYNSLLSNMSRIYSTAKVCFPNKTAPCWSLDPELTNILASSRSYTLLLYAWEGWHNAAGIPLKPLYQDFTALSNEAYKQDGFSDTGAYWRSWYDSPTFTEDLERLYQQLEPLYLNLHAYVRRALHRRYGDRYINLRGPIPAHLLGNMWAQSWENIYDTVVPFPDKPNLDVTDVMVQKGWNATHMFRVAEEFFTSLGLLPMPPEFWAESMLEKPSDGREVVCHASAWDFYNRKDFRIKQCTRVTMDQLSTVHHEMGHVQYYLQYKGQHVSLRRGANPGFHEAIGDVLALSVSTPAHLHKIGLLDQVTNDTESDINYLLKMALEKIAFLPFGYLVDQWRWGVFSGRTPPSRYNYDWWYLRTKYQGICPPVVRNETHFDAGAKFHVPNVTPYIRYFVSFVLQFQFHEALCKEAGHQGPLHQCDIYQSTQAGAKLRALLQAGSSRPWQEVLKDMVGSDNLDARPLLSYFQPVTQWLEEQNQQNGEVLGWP

[5] = molecular target: T1, C-domain of bovine ACE (C-ACE); assay: Hydrolysis of Aβ metal-binding-domain peptides by C-ACE, products identified/quantified by MALDI-TOF MS; conditions: same experimental conditions as N-ACE, 37 °C
N-domain of ACE [6] = conditions: cited from earlier work
N-domain of ACE [7] = conditions: cited from earlier work; remark: listed apart in the source
N-domain of ACE (N-ACE) [8] = assay: N-ACE with lisinopril; conditions: bovine, 37 °C

Compound: NCCCC[C@H](N[C@@H](CCc1ccccc1)C(=O)O)C(=O)N1CCC[C@H]1C(=O)O [lisinopril]
Effect of lisinopril on C-ACE hydrolysis of Aβ(1-16) [1]: fully prevented the formation of these products of hydrolysis

Compound: Pyr-HWSYGLRPG-[Amide]
fragment found (N-domain of ACE [6]): N-terminal tripeptide

Compound: Pyr-HWSYGLRPG-[Amide] [luliberin, regulatory peptide, natural substrate of ACE]
Endoproteolytic cleavage by the N-domain of ACE (N-domain of ACE [7]): cleaves an N-terminal tripeptide

The next lines start with results.

not cleaved (C-domain of ACE (C-ACE)): complete inhibition of hydrolysis
not cleaved (N-domain of ACE (N-ACE) [2]): complete inhibition of hydrolysis
cleaved bond [3]: Arg13-His14, 10 min
Compound: Ac-DAEFGHDSGFEVRHQK-NH2
not cleaved [3]: absence of endopeptidase activity toward the G5-H6 peptide bond

Peptide bond hydrolysed by N-ACE ([4]; bicarbonate buffer pH 7.8, 37 °C, incubation 40 min (Aβ(1-16)), 130 min (amidated Aβ peptides), 60 min (ratAβ peptide)): Arg13-His14
Bond cleaved, N-ACE (backbone positions) ([4]; same digestion as products observed, N-ACE, 37 °C): 13–14
Compound: Ac-DAEFGHDSGFEVRHQK-NH2 [[CH3CO]-Asp-Ala-Glu-Phe-Gly^5-His-Asp- Ser-Gly- Phe^10-Glu-Val-Arg-His-Gln^15-Lys-[NH2]]
Peptide bond(s) hydrolysed by C-ACE [5]: Arg13-His14, His14-Gln15, and Gln15- Lys16

not cleaved (N-domain of ACE (N-ACE) [8]): complete inhibition of hydrolysis
Compound: [CH3CO]-Asp-Ala-Glu-Phe-Arg^5-His-Asp- Ser-Gly-Tyr^10-Glu-Val-His-His-Gln^15-Lys-[NH2]
